Earlier results in patent publication US20190124976A1, “NICOTINE DOSAGE REGIMEN” (priority 2014, published 2019).

Conditions: reported to be as low as

In the case of `CN1CCCC1c1cccnc1` (stereo not shown) [nicotine], the minimal lethal dose is given as 30 mg.
